Laboratory results reported in the NIST ThermoML archive (doi:10.1016/j.jct.2016.06.007).

Test: mn = molality of the nth substance listed, in mol/kg
Settings: Liquid, m1 = 7.377; for viscosity: Falling or rolling sphere viscometry; for mass density: Vibrating tube method

CN(CCO)CCO [N-methyldiethanolamine] + O
Settings | mass density [kg/m3] | viscosity [mPa·s]
313.15 K, 6.3 kPa | 1031.4 | 4.23
328.15 K, 13.7 kPa | 1021.6 | 2.82
343.15 K, 27.4 kPa | 1009.7 | 1.83
